# Literature values as cited in US11931686B1, “Carbon capture process utilizing inert gas medium to assist thermal desorption” (CARBON CAPTURE INC., priority 2022, dated 2024).
# Tested on: not given
# Conditions: Table 1
row,SMILES,Solubility in Water
1,"CCOC(=O)c1ccccc1 [Ethyl Benzoate, ethyl benzoate]",0.07 g/100 g
2,"C[Si](C)(C)O[Si](C)(C)O[Si](C)(C)O[Si](C)(C)C [MD2M, decamethyltetrasiloxane]",insoluble
3,"Cc1ccccc1C [o-Xylene, o-xylene]",0.02 g/100 g

# Tested on: Rat
# Conditions: Rat; Table 1, inert chemical fluids
row,SMILES,LD50 (Rat)
1,"Cc1ccccc1C [o-Xylene, o-xylene]","3,600 mg/kg"

# Same assay, conditions: Rat; Table 3, alcohols
row,SMILES,LD50 (Rat)
1,CC(C)CCO [i-Amyl Alcohol],"1,300 mg/kg"

# Same assay, conditions: Rat; Table 4, hydrocarbons
row,SMILES,LD50 (Rat)
1,CCCCCCCC [Octane],">5,000 mg/kg"
2,c1ccc2c(c1)CCCC2 [Tetralin],"2,860 mg/kg"

# Same assay, conditions: rat, in vivo
row,SMILES,LD50 (Rat)
1,CCCCO [1-Butanol],790 mg/kg
2,CCCO [1-Propanol],"1,870 mg/kg"
3,CCC(C)O (centres unmarked) [2-Butanol],"2,193 mg/kg"
4,CCC(CC)CO [2-Ethylbutanol],"1,850 mg/kg"
5,CCCCC(CC)CO (centres unmarked) [2-Ethylhexanol],"3,730 mg/kg"
6,CC(C)O [2-Propanol],"3,600 mg/kg"
7,Clc1ccccc1 [Chlorobenzene],">2,000 mg/kg"
8,CCO [Ethanol],"7,340 mg/kg"
9,"CCOC(=O)c1ccccc1 [Ethyl Benzoate, ethyl benzoate]","2,100 mg/kg"
10,CCCCCCC [Heptane],">5,000 mg/kg"
11,"C[Si](C)(C)O[Si](C)(C)O[Si](C)(C)O[Si](C)(C)C [MD2M, decamethyltetrasiloxane]",">2,000 mg/kg"
12,CO [Methanol],"5,628 mg/kg"
13,"CCCCCCCCCCC [Undecane, undecane]","2,000 mg/kg"
14,CC(C)CO [i-Butanol],"2,460 mg/kg"
15,"Cc1cccc(C)c1 [m-Xylene, m-xylene]","5,000 mg/kg"
16,Cc1ccc(C(C)C)cc1 [p-Cymene],"4,750 mg/kg"
